Test results: the kinase profiling compilation of Christmann-Franck et al. (2016)
Blank lines part the entries; values can stand above or below the compound they belong to.

Tests used:
Test in all cases: radiometric filter-binding kinase assay
[1] = biological target: MAPK9 (human) (UniProt P45984)
[2] = biological target: MAP3K11 (human) (UniProt Q16584)
[3] = biological target: NUAK1 (human) (UniProt O60285)
[4] = biological target: IKBKE (human) (UniProt Q14164)
[5] = biological target: TTK (human) (UniProt P33981)
[6] = biological target: MARK3 (human) (UniProt P27448)
[7] = biological target: DYRK1A (human) (UniProt Q13627)
[8] = biological target: CHEK2 (human) (UniProt O96017)
[9] = biological target: MAPK8 (human) (UniProt P45983)
[10] = biological target: STK11 CAB39 STRADA (human) (UniProt Q9Y376+Q7RTN6+Q15831)
[11] = biological target: STK3 (human) (UniProt Q13188)
[12] = biological target: MARK1 (human) (UniProt Q9P0L2)
[13] = biological target: EPHB2 (human) (UniProt P29323)
[14] = biological target: TBK1 (human) (UniProt Q9UHD2)
[15] = biological target: CaMK1 (human) (UniProt Q14012)
[16] = biological target: IRAK4 (human) (UniProt Q9NWZ3)
[17] = biological target: PIM1 (human) (UniProt P11309)
[18] = biological target: MARK2 (human) (UniProt Q7KZI7)
[19] = biological target: JAK2 JH1 JH2 (human) (UniProt O60674)
[20] = biological target: MAPK14 (human) (UniProt Q16539)
[21] = biological target: DYRK3 (human) (UniProt O43781)
[22] = biological target: MAPK3 (human) (UniProt P27361)
[23] = system: RPS6KB1 (human), P23443 [T412E]
[24] = biological target: MAPKAPK2 (human) (UniProt P49137)
[25] = biological target: MKNK2 (human) (UniProt Q9HBH9)
[26] = biological target: NEK6 (human) (UniProt Q9HC98)
[27] = biological target: PAK4 (human) (UniProt O96013)
[28] = system: AKT1 (human), P31749 [S473D]
[29] = biological target: NEK2 (human) (UniProt P51955)
[30] = biological target: MKNK1 (human) (UniProt Q9BUB5)
[31] = biological target: MAP2K1 (human) (UniProt Q02750)
[32] = biological target: CSNK1D (human) (UniProt P48730)
[33] = biological target: RPS6KA1 KD1 KD2 (human) (UniProt Q15418)
[34] = biological target: IKBKB (human) (UniProt O14920)
[35] = biological target: NTRK1 (human) (UniProt P04629)

TTK (human), sequence (P33981 whole entry, looked up): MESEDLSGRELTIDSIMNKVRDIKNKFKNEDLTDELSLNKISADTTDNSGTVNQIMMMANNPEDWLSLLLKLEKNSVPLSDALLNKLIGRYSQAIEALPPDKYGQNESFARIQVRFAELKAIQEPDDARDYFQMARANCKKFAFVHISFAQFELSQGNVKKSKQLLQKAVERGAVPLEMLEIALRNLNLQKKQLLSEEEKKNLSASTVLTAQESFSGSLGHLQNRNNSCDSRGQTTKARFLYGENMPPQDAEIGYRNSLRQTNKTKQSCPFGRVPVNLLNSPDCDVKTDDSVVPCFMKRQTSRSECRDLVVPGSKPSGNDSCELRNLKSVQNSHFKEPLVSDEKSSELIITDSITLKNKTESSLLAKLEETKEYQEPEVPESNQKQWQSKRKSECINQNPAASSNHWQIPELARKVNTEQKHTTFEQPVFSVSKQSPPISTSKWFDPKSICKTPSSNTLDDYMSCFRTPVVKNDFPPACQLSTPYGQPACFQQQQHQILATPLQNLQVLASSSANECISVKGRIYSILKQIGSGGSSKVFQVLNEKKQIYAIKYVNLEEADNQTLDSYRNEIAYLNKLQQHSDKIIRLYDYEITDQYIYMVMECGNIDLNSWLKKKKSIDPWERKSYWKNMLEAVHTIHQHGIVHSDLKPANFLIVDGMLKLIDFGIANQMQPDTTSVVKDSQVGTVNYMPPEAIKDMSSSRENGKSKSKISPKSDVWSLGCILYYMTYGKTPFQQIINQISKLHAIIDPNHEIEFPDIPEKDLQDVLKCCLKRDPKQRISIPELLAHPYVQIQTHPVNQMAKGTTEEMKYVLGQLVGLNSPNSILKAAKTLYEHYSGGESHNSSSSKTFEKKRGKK
RPS6KA1 KD1 KD2 (human), sequence (Q15418 whole entry, looked up): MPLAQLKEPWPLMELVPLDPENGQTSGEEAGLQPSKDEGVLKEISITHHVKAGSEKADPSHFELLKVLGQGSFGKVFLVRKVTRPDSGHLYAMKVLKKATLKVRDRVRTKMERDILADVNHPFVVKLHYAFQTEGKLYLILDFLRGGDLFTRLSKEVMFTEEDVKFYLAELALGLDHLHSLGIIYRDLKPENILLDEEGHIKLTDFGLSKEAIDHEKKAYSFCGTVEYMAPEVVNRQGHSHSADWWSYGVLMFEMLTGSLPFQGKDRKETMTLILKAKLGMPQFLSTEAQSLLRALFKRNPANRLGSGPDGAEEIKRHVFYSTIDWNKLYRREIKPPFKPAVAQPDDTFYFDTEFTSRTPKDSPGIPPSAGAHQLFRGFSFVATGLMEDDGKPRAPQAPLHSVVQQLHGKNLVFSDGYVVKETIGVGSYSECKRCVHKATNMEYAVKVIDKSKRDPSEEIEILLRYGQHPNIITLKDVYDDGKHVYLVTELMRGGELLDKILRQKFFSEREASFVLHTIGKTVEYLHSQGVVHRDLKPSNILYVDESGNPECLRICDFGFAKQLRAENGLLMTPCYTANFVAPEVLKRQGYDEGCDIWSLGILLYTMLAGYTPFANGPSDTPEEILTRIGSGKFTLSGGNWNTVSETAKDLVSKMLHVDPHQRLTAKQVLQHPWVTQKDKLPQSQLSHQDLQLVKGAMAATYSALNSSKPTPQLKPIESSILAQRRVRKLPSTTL
IKBKB (human), sequence (O14920 whole entry, looked up): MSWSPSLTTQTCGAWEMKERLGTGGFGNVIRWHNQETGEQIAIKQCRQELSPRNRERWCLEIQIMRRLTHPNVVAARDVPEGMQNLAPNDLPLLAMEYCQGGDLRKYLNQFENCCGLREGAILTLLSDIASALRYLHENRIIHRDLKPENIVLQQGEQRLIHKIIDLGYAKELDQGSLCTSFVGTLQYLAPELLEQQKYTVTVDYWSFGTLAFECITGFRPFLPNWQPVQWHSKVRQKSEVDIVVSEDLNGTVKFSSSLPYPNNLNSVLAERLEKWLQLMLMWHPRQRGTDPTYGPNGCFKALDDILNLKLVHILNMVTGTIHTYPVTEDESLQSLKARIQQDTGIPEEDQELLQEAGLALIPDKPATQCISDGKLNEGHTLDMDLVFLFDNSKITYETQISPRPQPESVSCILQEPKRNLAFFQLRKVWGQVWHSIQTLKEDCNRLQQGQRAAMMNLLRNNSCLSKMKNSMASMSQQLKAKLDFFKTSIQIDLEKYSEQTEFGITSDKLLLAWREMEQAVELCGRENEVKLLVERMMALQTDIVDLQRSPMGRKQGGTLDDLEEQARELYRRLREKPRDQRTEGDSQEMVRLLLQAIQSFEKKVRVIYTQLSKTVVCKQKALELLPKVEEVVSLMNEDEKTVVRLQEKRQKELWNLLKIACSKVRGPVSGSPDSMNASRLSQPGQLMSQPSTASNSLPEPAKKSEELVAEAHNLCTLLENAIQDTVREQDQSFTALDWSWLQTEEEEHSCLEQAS
MAPK8 (human), sequence (P45983 whole entry, looked up): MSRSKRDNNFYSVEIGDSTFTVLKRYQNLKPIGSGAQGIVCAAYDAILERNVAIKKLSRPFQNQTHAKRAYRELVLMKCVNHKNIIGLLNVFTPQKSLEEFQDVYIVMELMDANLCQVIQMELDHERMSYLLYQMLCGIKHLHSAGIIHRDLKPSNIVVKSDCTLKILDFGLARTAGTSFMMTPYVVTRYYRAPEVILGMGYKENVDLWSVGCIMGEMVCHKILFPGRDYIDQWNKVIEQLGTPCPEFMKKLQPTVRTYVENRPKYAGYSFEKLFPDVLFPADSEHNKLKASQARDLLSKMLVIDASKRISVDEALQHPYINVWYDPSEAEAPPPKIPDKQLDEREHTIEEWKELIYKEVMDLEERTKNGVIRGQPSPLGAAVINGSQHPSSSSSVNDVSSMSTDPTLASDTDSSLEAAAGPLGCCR
MARK1 (human), sequence (Q9P0L2 whole entry, looked up): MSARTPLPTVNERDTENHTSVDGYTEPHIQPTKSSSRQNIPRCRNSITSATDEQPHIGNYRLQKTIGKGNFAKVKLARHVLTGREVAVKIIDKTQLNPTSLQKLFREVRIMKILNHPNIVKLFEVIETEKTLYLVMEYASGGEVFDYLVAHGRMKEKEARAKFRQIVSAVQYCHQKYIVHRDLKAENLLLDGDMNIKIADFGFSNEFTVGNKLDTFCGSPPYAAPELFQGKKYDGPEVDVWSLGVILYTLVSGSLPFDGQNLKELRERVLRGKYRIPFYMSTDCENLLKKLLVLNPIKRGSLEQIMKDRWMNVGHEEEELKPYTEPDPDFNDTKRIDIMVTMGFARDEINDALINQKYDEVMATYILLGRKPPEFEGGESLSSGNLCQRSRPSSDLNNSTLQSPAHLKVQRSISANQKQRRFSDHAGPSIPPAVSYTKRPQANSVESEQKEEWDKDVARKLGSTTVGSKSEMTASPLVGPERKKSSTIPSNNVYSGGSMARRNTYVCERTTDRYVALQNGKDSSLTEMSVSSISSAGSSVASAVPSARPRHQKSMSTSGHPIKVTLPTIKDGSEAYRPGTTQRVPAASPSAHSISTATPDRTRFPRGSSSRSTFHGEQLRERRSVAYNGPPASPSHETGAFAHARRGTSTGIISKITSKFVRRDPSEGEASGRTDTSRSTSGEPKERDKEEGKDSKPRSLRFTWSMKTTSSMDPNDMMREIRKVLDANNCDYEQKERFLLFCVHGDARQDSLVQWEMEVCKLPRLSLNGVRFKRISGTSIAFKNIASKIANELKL
MAPK3 (human), sequence (P27361 whole entry, looked up): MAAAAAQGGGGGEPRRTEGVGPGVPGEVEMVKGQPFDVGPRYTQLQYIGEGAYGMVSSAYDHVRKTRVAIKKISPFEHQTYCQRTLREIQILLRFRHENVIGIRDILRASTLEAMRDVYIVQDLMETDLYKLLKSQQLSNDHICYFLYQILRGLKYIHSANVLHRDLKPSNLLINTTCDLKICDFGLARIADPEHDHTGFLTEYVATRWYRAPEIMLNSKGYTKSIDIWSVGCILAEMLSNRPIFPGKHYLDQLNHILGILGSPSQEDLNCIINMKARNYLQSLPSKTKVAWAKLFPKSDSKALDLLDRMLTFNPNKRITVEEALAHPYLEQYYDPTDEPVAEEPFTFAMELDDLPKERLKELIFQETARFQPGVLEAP
EPHB2 (human), sequence (P29323 whole entry, looked up): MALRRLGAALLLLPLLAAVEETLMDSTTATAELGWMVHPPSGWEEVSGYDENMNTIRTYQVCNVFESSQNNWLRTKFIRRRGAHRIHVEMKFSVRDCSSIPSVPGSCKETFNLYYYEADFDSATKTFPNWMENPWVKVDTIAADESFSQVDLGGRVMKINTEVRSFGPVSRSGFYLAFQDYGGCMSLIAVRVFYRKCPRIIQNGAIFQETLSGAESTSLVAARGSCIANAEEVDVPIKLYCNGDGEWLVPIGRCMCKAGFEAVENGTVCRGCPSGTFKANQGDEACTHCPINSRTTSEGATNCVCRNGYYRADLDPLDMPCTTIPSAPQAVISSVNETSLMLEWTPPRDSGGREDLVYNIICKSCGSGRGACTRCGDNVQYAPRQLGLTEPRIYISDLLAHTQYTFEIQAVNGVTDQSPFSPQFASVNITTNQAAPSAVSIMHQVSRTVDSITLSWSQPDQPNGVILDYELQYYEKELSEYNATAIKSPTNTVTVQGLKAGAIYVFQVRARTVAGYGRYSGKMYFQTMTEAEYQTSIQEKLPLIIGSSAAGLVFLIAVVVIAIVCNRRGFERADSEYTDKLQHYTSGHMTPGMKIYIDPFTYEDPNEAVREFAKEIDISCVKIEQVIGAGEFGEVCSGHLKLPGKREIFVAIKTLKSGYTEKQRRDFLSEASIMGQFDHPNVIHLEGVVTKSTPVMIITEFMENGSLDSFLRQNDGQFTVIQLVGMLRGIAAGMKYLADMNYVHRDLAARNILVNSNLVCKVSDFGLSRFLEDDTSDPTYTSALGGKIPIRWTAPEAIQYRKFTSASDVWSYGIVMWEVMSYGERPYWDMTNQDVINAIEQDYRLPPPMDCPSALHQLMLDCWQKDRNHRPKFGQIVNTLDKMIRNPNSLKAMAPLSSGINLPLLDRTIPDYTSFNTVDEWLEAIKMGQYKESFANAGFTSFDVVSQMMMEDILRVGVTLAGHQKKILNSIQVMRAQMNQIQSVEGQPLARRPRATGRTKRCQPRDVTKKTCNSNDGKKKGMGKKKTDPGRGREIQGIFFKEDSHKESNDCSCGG

residual activity ([1]; compound 10.0 µM): 97%
residual activity ([2]; compound 1.0 µM): 81%
residual activity ([2]; compound 10.0 µM): 83%
residual activity ([3]; compound 1.0 µM): 32%
residual activity ([3]; compound 10.0 µM): 16%
residual activity ([4]; compound 1.0 µM): 111%
residual activity ([4]; compound 10.0 µM): 97%
residual activity ([5]; compound 1.0 µM): 91%
residual activity ([5]; compound 10.0 µM): 86%
residual activity ([6]; compound 1.0 µM): 93%
residual activity ([6]; compound 10.0 µM): 102%
residual activity ([7]; compound 1.0 µM): 89%
residual activity ([7]; compound 10.0 µM): 83%
residual activity ([8]; compound 1.0 µM): 95%
residual activity ([8]; compound 10.0 µM): 94%
residual activity ([9]; compound 1.0 µM): 106%
residual activity ([9]; compound 10.0 µM): 109%
residual activity ([10]; compound 1.0 µM): 87%
residual activity ([10]; compound 10.0 µM): 85%
residual activity ([11]; compound 1.0 µM): 64%
residual activity ([11]; compound 10.0 µM): 49%
residual activity ([12]; compound 1.0 µM): 96%
residual activity ([12]; compound 10.0 µM): 114%
residual activity ([13]; compound 1.0 µM): 93%
residual activity ([13]; compound 10.0 µM): 95%
residual activity ([14]; compound 1.0 µM): 83%
residual activity ([14]; compound 10.0 µM): 96%
residual activity ([15]; compound 1.0 µM): 73%
residual activity ([16]; compound 1.0 µM): 90%
residual activity ([16]; compound 10.0 µM): 89%
residual activity ([17]; compound 1.0 µM): 81%
residual activity ([17]; compound 10.0 µM): 73%
residual activity ([18]; compound 1.0 µM): 101%
residual activity ([18]; compound 10.0 µM): 95%
residual activity ([19]; compound 1.0 µM): 26%
residual activity ([19]; compound 10.0 µM): 31%
residual activity ([20]; compound 1.0 µM): 93%
residual activity ([20]; compound 10.0 µM): 134%
residual activity ([21]; compound 1.0 µM): 57%
residual activity ([21]; compound 10.0 µM): 64%
residual activity ([22]; compound 1.0 µM): 85%
residual activity ([22]; compound 10.0 µM): 83%
residual activity ([23]; compound 1.0 µM): 91%
residual activity ([23]; compound 10.0 µM): 96%
residual activity ([24]; compound 1.0 µM): 115%
residual activity ([25]; compound 1.0 µM): 94%
residual activity ([25]; compound 10.0 µM): 99%
residual activity ([26]; compound 1.0 µM): 83%
residual activity ([26]; compound 10.0 µM): 40%
residual activity ([27]; compound 1.0 µM): 94%
residual activity ([28]; compound 1.0 µM): 102%
residual activity ([28]; compound 10.0 µM): 117%
residual activity ([29]; compound 1.0 µM): 108%
residual activity ([29]; compound 10.0 µM): 103%
residual activity ([30]; compound 1.0 µM): 89%
residual activity ([30]; compound 10.0 µM): 90%
residual activity ([31]; compound 1.0 µM): 78%
residual activity ([31]; compound 10.0 µM): 96%
residual activity ([32]; compound 1.0 µM): 92%
residual activity ([32]; compound 10.0 µM): 95%
residual activity ([33]; compound 1.0 µM): 96%
residual activity ([33]; compound 10.0 µM): 73%
residual activity ([34]; compound 1.0 µM): 86%
residual activity ([34]; compound 10.0 µM): 87%
residual activity ([35]; compound 1.0 µM): 50%
Compound: CC(C)(C#N)c1ccc(N2C(=O)OCc3cnc4ccc(-c5cnc6ccccc6c5)cc4c32)cc1

residual activity ([1]; compound 1.0 µM): 90%
residual activity ([1]; compound 10.0 µM): 105%
residual activity ([2]; compound 1.0 µM): 83%
residual activity ([2]; compound 10.0 µM): 92%
residual activity ([3]; compound 1.0 µM): 89%
residual activity ([3]; compound 10.0 µM): 107%
residual activity ([4]; compound 1.0 µM): 103%
residual activity ([4]; compound 10.0 µM): 111%
residual activity ([5]; compound 1.0 µM): 98%
residual activity ([5]; compound 10.0 µM): 121%
residual activity ([6]; compound 1.0 µM): 91%
residual activity ([6]; compound 10.0 µM): 74%
residual activity ([7]; compound 1.0 µM): 94%
residual activity ([7]; compound 10.0 µM): 104%
residual activity ([8]; compound 1.0 µM): 95%
residual activity ([8]; compound 10.0 µM): 114%
residual activity ([9]; compound 1.0 µM): 91%
residual activity ([9]; compound 10.0 µM): 117%
residual activity ([10]; compound 1.0 µM): 113%
residual activity ([11]; compound 1.0 µM): 83%
residual activity ([11]; compound 10.0 µM): 70%
residual activity ([12]; compound 1.0 µM): 85%
residual activity ([12]; compound 10.0 µM): 85%
residual activity ([13]; compound 1.0 µM): 64%
residual activity ([13]; compound 10.0 µM): 74%
residual activity ([14]; compound 1.0 µM): 117%
residual activity ([14]; compound 10.0 µM): 101%
residual activity ([15]; compound 1.0 µM): 96%
residual activity ([15]; compound 10.0 µM): 91%
residual activity ([16]; compound 1.0 µM): 81%
residual activity ([16]; compound 10.0 µM): 100%
residual activity ([17]; compound 1.0 µM): 92%
residual activity ([17]; compound 10.0 µM): 73%
residual activity ([18]; compound 1.0 µM): 104%
residual activity ([18]; compound 10.0 µM): 103%
residual activity ([19]; compound 1.0 µM): 8%
residual activity ([19]; compound 10.0 µM): 9%
residual activity ([20]; compound 1.0 µM): 96%
residual activity ([20]; compound 10.0 µM): 97%
residual activity ([21]; compound 1.0 µM): 85%
residual activity ([21]; compound 10.0 µM): 85%
residual activity ([22]; compound 1.0 µM): 88%
residual activity ([22]; compound 10.0 µM): 106%
residual activity ([23]; compound 1.0 µM): 97%
residual activity ([23]; compound 10.0 µM): 81%
residual activity ([24]; compound 1.0 µM): 103%
residual activity ([24]; compound 10.0 µM): 102%
residual activity ([25]; compound 1.0 µM): 93%
residual activity ([25]; compound 10.0 µM): 110%
residual activity ([26]; compound 1.0 µM): 95%
residual activity ([26]; compound 10.0 µM): 110%
residual activity ([27]; compound 10.0 µM): 65%
residual activity ([28]; compound 1.0 µM): 107%
residual activity ([28]; compound 10.0 µM): 104%
residual activity ([29]; compound 1.0 µM): 97%
residual activity ([29]; compound 10.0 µM): 102%
residual activity ([30]; compound 1.0 µM): 103%
residual activity ([30]; compound 10.0 µM): 104%
residual activity ([31]; compound 1.0 µM): 18%
residual activity ([31]; compound 10.0 µM): 2%
residual activity ([32]; compound 1.0 µM): 89%
residual activity ([32]; compound 10.0 µM): 101%
residual activity ([33]; compound 1.0 µM): 102%
residual activity ([33]; compound 10.0 µM): 102%
residual activity ([34]; compound 1.0 µM): 88%
residual activity ([34]; compound 10.0 µM): 103%
residual activity ([35]; compound 1.0 µM): 72%
residual activity ([35]; compound 10.0 µM): 75%
Compound: O=C(NOC[C@H](O)CO)c1ccc(F)c(F)c1Nc1ccc(I)cc1Cl
